Results on two molecules are retold here after patent publication US20250197358A1, “PESTICIDALLY ACTIVE THIOSEMICARBAZONE COMPOUNDS” (BASF SE, priority 2022, published 2025).

Common to all, as to assay: whole plant or invertebrate
Holding throughout (format): in vivo

Experiment [1] deals with diamond back moth (Plutella xylostella). The settings on record: in Brassica oleracea, foliar, 3rd instar larvae, 72 hours after treatment, read-out: mortality in comparison with untreated controls. How it is done:
Surfactant (Kinetic® HV) is added at a rate of 0.01% (v/v). The test solution is prepared at the day of use.
Leaves of cabbage were dipped in test solution and air-dried. Treated leaves were placed in petri dishes lined with moist filter paper and inoculated with ten 3rd instar larvae. Mortality was recorded 72 hours after treatment. Feeding damages were also recorded using a scale of 0-100%.

The subject of experiment [2] is boll weevil (Anthonomus grandis). The settings on record: 120 h, egg and larval mortality after 5 days, read-out: mortality in comparison with untreated controls.
For experiment [3], the system named is southern armyworm (Spodoptera eridania). The settings on record: in Phaseolus lunatus, 96 h, 2nd instar larvae, 4 days after treatment, read-out: mortality in comparison with untreated controls. Here is the method:
The 10,000 ppm solution was serially diluted in 100% cyclohexanone to make interim solutions. These served as stock solutions for which final dilutions were made by the Tecan in 50% acetone:50% water (v/v) into 10 or 20 ml glass vials. A nonionic surfactant (Kinetic®) was included in the solution at a volume of 0.01% (v/v). The vials were then inserted into an automated electrostatic sprayer equipped with an atomizing nozzle for application to plants/insects.
Lima bean plants (variety Sieva) were grown 2 plants to a pot and selected for treatment at the 1st true leaf stage. Test solutions were sprayed onto the foliage by an automated electrostatic plant sprayer equipped with an atomizing spray nozzle. The plants were dried in the sprayer fume hood and then removed from the sprayer. Each pot was placed into perforated plastic bags with a zip closure. About 10 to 11 armyworm larvae were placed into the bag and the bags zipped closed. Test plants were maintained in a growth room at about 25° C. and about 20-40% relative humidity for 4 days, avoiding direct exposure to fluorescent light (24 hour photoperiod) to prevent trapping of heat inside the bags. Mortality and reduced feeding were assessed 4 days after treatment, compared to untreated control plants.

Experiment [4] deals with orchid thrips (Dichromothrips corbetti). The settings on record: adult thrips, 72 hours after treatment, read-out: mortality in comparison with untreated controls. How it is done: Dichromothrips corbetti adults used for bioassay were obtained from a colony maintained continuously under laboratory conditions. For testing purposes, the test compound is diluted in a 1:1 mixture of acetone:water (vol:vol), plus Kinetic® HV at a rate of 0.01% v/v.
Thrips potency of each compound was evaluated by using a floral-immersion technique. All petals of individual, intact orchid flowers were dipped into treatment solution and allowed to dry in Petri dishes. Treated petals were placed into individual re-sealable plastic along with about 20 adult thrips. All test arenas were held under continuous light and a temperature of about 28° C. for duration of the assay. After 3 days, the numbers of live thrips were counted on each petal. The percent mortality was recorded 72 hours after treatment.

Experiment [5] relates to yellow fever mosquito (Aedes aegypti). The settings on record: 48 h, larval mortality after 2 days, read-out: mortality in comparison with untreated controls. How it is done: Example B1: Action on Yellow Fever Mosquito (Aedes aegypti)
For evaluating control of yellow fever mosquito (Aedes aegypti) the test unit consisted of 96-well-microtiter plates containing 200 μl of tap water per well and 5-15 freshly hatched A. aegypti larvae.
The active compounds or mixtures were formulated using a solution containing 75% (v/v) water and 25% (v/v) DMSO. Different concentrations of formulated compounds or mixtures were sprayed onto the insect diet at 2.5 μl, using a custom built micro atomizer, at two replications. For experimental mixtures in these tests identical volumes of both mixing partners at the desired concentrations respectively, were mixed together.
After application, microtiter plates were incubated at 28±1° C., 80±5% RH for 2 days. Larval mortality was then visually assessed.

The test system of experiment [6] is tobacco budworm (Heliothis virescens). The settings on record: 120 h, egg and larval mortality after 5 days, read-out: mortality in comparison with untreated controls. Here is the method: For evaluating control of tobacco budworm (Heliothis virescens) the test unit consisted of 96-well-microtiter plates containing an insect diet and 15-25 H. virescens eggs.
Different concentrations of formulated compounds were sprayed onto the insect diet at 10 μl, using a custom-built micro atomizer, at two replications.
After application, microtiter plates were incubated at about 28+1° C. and about 80+5% relative humidity for 5 days. Egg and larval mortality were then visually assessed.

What is called mortality is the percentage killed. Turning to `CC(=O)OCS/C(=N\N=C\c1ccc(-c2nn(C)c(NC(=O)c3ccc(OC(F)(F)F)cc3)c2C#N)cc1)Nc1cc(C)ccc1C(C)C` [Compound C-7, [(Z)—N′-[(E)-[4-[4-cyano-1-methyl-5-[[4-(trifluoromethoxy)benzoyl]amino]pyrazol-3-yl]phenyl]methyleneamino]-N-(2-isopropyl-5-methylphenyl)carbamimidoyl]sulfanylmethyl acetate], the mortality at 500 ppm in experiment [1] and in experiment [4] was at least 75% throughout. Also, the mortality at 800 ppm in experiment [2] was at least 75%; in experiment [5], at least 50%; in experiment [6], at least 75%. Further, the mortality at 300 ppm in experiment [3] was at least 75%.
For the molecule `Cc1ccc(C(C)C)c(N/C(=N/N=C/c2ccc(-c3nn(C)c(NC(=O)c4ccc(OC(F)(F)F)cc4)c3C#N)cc2)SCOC(=O)C(C)C)c1` [Compound C-8, [(Z)—N′-[(E)-[4-[4-cyano-1-methyl-5-[[4-(trifluoromethoxy)benzoyl]amino]pyrazol-3-yl]phenyl]methyleneamino]-N-(2-isopropyl-5-methylphenyl)carbamimidoyl]sulfanylmethyl 2-methylpropanoate], the mortality at 500 ppm in experiment [1] and in experiment [4] was at least 75% in each case. The mortality at 800 ppm in experiment [2] was at least 75%; in experiment [5], at least 50%; in experiment [6] it was at least 75%. Also, the mortality at 300 ppm in experiment [3] was at least 75%.
